# According to patent US7795252B2, “Rapamycin analogues and the uses thereof in the treatment of neurological, proliferative, and inflammatory disorders” (Pfizer Inc., priority 2004, dated 2010):
# pEC50, pIC50: −log10 of the molar value. Read-outs that look alike come from different tables or passages of the source.
# Columns and labels:
# [1] = test system: Mesencephalic dopaminergic neuron cultures; assay: dopaminergic (3H-dopamine) uptake assay after MPP+ exposure; format: cell-based; settings: rat E15 mesencephalic dopaminergic neurons, read-out: EC50 in dopaminergic uptake assays
# Description: Mesencephalic dopaminergic neuron cultures were prepared as described in Pong et al., J. Neurochem. 69: 986-994, 1997, which is incorporated herein by reference in its entirety. Embryonic day 15 (E15) rat fetuses were collected and dissected in ice-cold phosphate-buffered saline (PBS). The ventral piece of tissue compromising the mesencephalic dopaminergic region was dissected out. Dissected pieces of tissue were pooled together and transferred to an enzymatic dissociation medium containing 20 IU/mL papain in Earle's balanced salt solution (Worthington Biochemical, Freehold, N.J., USA) and incubated for 60 minutes at 37° C. After enzymatic dissociation, the papain solution was aspirated and the tissue mechanically triturated with a fire-polished glass Pasteur pipette in complete medium (equal volumes of minimum essential medium (MEM) and F-12 nutrient mixture (GibcoBRL) supplemented with 0.1 mg/mL apotransferrin and 2.5 μg/mL insulin) containing 2,000 IU/mL DNase and 10 mg/mL ovomucoid protease inhibitor.
# For dopamine uptake experiments, single-cell suspensions in complete media were seeded on poly-L-ornithine and laminin coated 24-well plates. The cultures were maintained for seven days prior to experimentation. Cultures were pretreated with various concentrations of the compound for 24 hours, then exposed to 10 mM MPP+ for 1 hour. Following the 1 hour incubation, media was exchanged three times and fresh compound was added for an additional 48 hours.
# After 48 hours growth of mesencephalic dopaminergic neuron cultures following MPP+ exposure, high-affinity 3H-dopamine uptake was performed using a modified method described by Prochiantz et al., Nature 293: 570-572, 1981, which is incorporated herein by reference. Cultures were washed with pre-warmed PBS containing 5.6 mM glucose and 1 mM ascorbic acid. Cultures were then incubated for 15 minutes at 37° C. with 50 nM 3H-dopamine (31 Ci/mmol, DuPont-NEN, Wilmington, Del., USA). The cultures were washed twice with buffer and lysed with 0.5 N NaOH. The lysate was transferred to a scintillation vial containing Ultima Gold scintillation cocktail and radioactivity was determined with a liquid scintillation counter. Alternatively, culture lysates can be washed twice with buffer, incubated for 2 hours at room temperature with Optiphase Supermix scintillation cocktail (Wallac Scintillation Products, Gaithersburg, Md., USA), and radioactivity measured with a liquid scintillation counter.
# [2] = test system: Dissociated cortical neuron cultures; assay: cortical neuron assay (neurite outgrowth); format: cell-based; settings: Cortical neurone, rat E15 cortical neurons, compound for 72 hours, read-out: EC50 in cortical neuron assays
# Description: Dissociated cortical neuron cultures were prepared as previously described (Pong et al., 2001). Briefly, embryonic day 15 rat fetuses were collected and dissected in ice-cold PBS. Dissected cortices were pooled together and transferred to an enzymatic dissociation medium containing papain. After 30 minutes, the tissue was mechanically triturated with a fire-polished glass Pasteur pipette. Single-cell suspensions in complete media were seeded on poly-L-ornithine and laminin coated 96-well plates. After 24 hours, cultures were treated with various concentrations of compound for 72 hours. The cultures were then fixed and stained with an anti-tubulin primary antibody (TUJ-1) and a fluorescent-tagged secondary antibody. Neurite outgrowth was determined by using the Enhanced Neurite Outgrowth (ENO) algorithm with the Cellomics ArrayScan and expressed as average neurite length or total neurite length per cell.
# [3] = test system: Spinal cord neuron cultures; assay: spinal cord neuron assay; format: cell-based; settings: rat E15 spinal cord neurons, compound for 72 h, read-out: EC50 in spinal cord neuron assays
# Description: Spinal cord neuron cultures were prepared from embryonic day 15 (E15) rat embryos (Sprague-Dawley, Charles River Laboratories, Wilmington, Mass.). The embryos were collected and their spinal cords were removed in ice-cold phosphate-buffered saline (PBS) without Ca^2+ and Mg^2+. Dissected pieces of spinal cord tissue were pooled together and transferred to an enzymatic dissociation media containing 20 IU/mL papain in Earle's balanced salt solution (Worthington Biochemical, Freehold, N.J.) and incubated for 30 minutes at 37° C. After enzymatic dissociation, the papain solution was aspirated and the tissue mechanically triturated with a fire-polished Pasteur pipette in complete media [Neurobasal Medium with B-27 supplement (Gibco, Grand Island, N.Y.), 100 IU/mL penicillin, 100 μg/mL streptomycin, 3.3 μg/mL aphidicolin, 0.5 mM glutamate] containing 2,000 IU/mL DNase and 10-mg/mL ovomucoid protease inhibitor. Single-cell suspensions in complete media were plated on pre-coated poly-L-ornithine/laminin 96-well plates (Becton-Dickinson, Bedford, Mass.) at a density of 1.0×10^4 cells/well. Spinal cord neurons were maintained for 24 h then exposed to vehicle or various concentrations of compound for 72 h.
# rats following pMCAO = assay: Permanent occlusion of middle cerebral artery (pMCAO), behavioral deficit scoring; format: in vivo, rat; settings: I.V. administration (10 mg/kg) following pMCAO
# Description: Adult male Wistar rats (Charles River, Wilmington, Mass.) 270-300 g were anesthetized with 3% isoflurane in 70% nitrous oxide and 30% oxygen through a nose cone. Temperature was maintained at 37° C. throughout the surgery using a heating lamp. Permanent occlusion of MCAO was induced by electro cauterization of the distal portion of the MCA (via a craniotomy) with a 90 min ligation of both carotid arteries to interrupt collateral circulation (Chen S T, Hsu C Y, Hogan E L, Maricq H Balentine J D (1986) A model of focal ischemic stroke in the rat: reproducible extensive cortical infarction. Stroke 17:738-743). Compound was administered 10 mg/kg i.v. 1.5, 5.5, 24, 48, and 72 hours post ischemia. Rats were kept for 21 day for long-term functional recovery evaluation. […] Rats extending both forelimbs toward the table were scored as 0, flexing contralateral limb toward the body and/or rotating the contralateral shoulder and limb medially were scored as 1, and rolling up the body toward the contralateral side and attempting to grasp the tail were scored as 2. […] Rats retracting hind limb back on bench top immediately were scored as 0, delaying (>2 seconds) were scored as 1, and unable to retract hind limb were score as 2. […]
# human CD4+ T cells [4] = assay: PMA/ionomycin activation assay; format: cell-based; settings: CD4+ T cells stimulated with PMA and ionomycin, tritiated thymidine incorporation, read-out: EC50, inhibition of proliferation
# Description: (§1) In the following assays, human CD4+ T cells were purified by negative selection from peripheral blood lymphocytes using RosetteSep as per manufacture's instructions (StemCell Technologies, Inc. Vancouver, British Columbia).
# Proliferation of the compounds was determined using this assay. CD4+ T cells (5×10^5 cells/well) were plated in flat bottomed 96 well microtiter plates in RPMI, 10% fetal calf serum, 2 mM glutamine media and stimulated with PMA (10 ng/mL) and ionomycin (200 ng/mL) in the presence of increasing concentration of compound. Seventy-two hours after activation, 100 μL of culture media was collected for IL-2 determination, an additional 100 μL fresh media was added to each well and cultures labeled with tritiated thymidine (1 μCi/well) for 6 hours. Cultures were harvested and tritiated thymidine incorporation (count per minute, CPM) assessed using a Trilux (Perkin Elmer, Shelton, Conn.). IL-2 production was determined using an ELISA as per manufacture's instructions (R&D Systems, Minneapolis, Minn.).
# human CD4+ T cells [5] = assay: Anti-CD3/-CD28 stimulation and IL-2 re-stimulation assay; format: cell-based
# Description: as §1
# Tosyl-activated magnetic microspheres (Dynal, Great Neck, N.Y.) were coated with anti-CD3 Ab (1 μg/10^7 microspheres), and anti-CD28Ab (0.5 μg/10^7 microspheres) as described in Blair et al. J. Immunol., 160:12, 1998. Murine IgG was used to saturate the binding capacity of the microspheres (total protein=5 μg/10^7 microspheres). Protein-coated microspheres were added to purified CD4+ T cells (2×10^6 cells/mL, ratio 1 bead: 1 cell) and activated for 72 hours in RPMI, 10% fetal calf serum, 2 mM glutamine media. Cells were harvested, washed, and cultured overnight in fresh media and re-stimulated with IL-2 as described in Bennett et al., J. Immunol. 170:711, 2003. Briefly, overnight rested cells were recounted, plated (10^5 cells/well) in flat-bottomed 96 well microtiter plates and stimulated with 1 ng/mL human IL-2 (R&D Systems, Minneapolis, Minn.) in the presence of increasing concentrations of compound. Seventy-two hours after culture re-stimulation, plates were pulsed with 1 μCi/well tritiated thymidine and incubated for a 6-16 hour period.
Molecule,pEC50 ([1]; Neuron),pEC50 [2],pEC50 [3],other results
"CO[C@H]1C[C@@H]2CC[C@@H](C)[C@@](O)(O2)C(=O)C(=O)N2CCCC[C@H]2C(=O)O[C@H]([C@H](C)C[C@@H]2CC[C@@H](OC(=O)C(C)(CO)CO)[C@H](OC)C2)CC(=O)[C@H](C)/C=C(\C)[C@@H](O)[C@@H](OC)C(=O)[C@H](C)C[C@H](C)/C=C/C=C/C=C/1C [CCI-779, reference compound]",< 6.00,< 6.00,,
"CO[C@H]1C[C@@H]2CC[C@@H](C)[C@@](O)(O2)C(=O)C(=O)N2CCCC[C@H]2C(=O)O[C@H]([C@H](C)C[C@@H]2CC[C@@H](O)[C@H](OC)C2)CC(=O)[C@H](C)/C=C(\C)[C@@H](O)[C@@H](OC)C(=O)[C@H](C)C[C@H](C)[C@@H]2CC[C@H](/C=C/1C)ON2c1ccccc1 [Example 2, 9,27-dihydroxy-3-{2-[4-hydroxy-3-methoxycyclohexyl]-1-methylethyl}-10,21-dimethoxy-6,8,12,14,20,26-hexamethyl-37-phenyl-4,9,10,12,13,14,15,16,17,18,21,22,23,24,25,26,27,32,33,34,34a-henicosahydro-3H-23,27-epoxy-18,15-(epoxyimino)pyrido[2,1-c][1,4]oxazacyclohentriacontine-1,5,11,28,29(6H,31H)-pentone]",,> 6.00,> 6.00,behavior deficit scoring (rats following pMCAO): statistically significant reduction
"CO[C@H]1C[C@@H]2CC[C@@H](C)[C@@](O)(O2)C(=O)C(=O)N2CCCC[C@H]2C(=O)O[C@H]([C@H](C)C[C@@H]2CC[C@@H](O)[C@H](OC)C2)CC(=O)[C@H](C)/C=C(\C)[C@@H](O)[C@@H](OC)C(=O)[C@H](C)C[C@H](C)C2C=CC(/C=C/1C)ON2c1c(Cl)cccc1Cl [Example 3, 37-(2,6-dichlorophenyl)-9,27-dihydroxy-3-{2-[4-hydroxy-3-methoxycyclohexyl]-1-methylethyl}-10,21-dimethoxy-6,8,12,14,20,26-hexamethyl-4,9,10,12,13,14,15,18,21,22,23,24,25,26,27,32,33,34,34a-nonadecahydro-3H-23,27-epoxy-18,15-(epoxyimino)pyrido[2,1-c][1,4]oxazacyclohentriacontine-1,5,11,28,29(6H,31H)-pentone]",,> 6.00,> 6.00,"pEC50 (human CD4+ T cells [4]): 5.31 to 6.70; pIC50 (human CD4+ T cells [5]; CD4+ T cells activated with anti-CD3/anti-CD28, re-stimulated with 1 ng/mL human IL-2, read-out: IC50, inhibition of IL-2 production): > 6.00; IL-2 production compared with rapamycin and CCI-779 (human CD4+ T cells [5]; CD4+ T cells, IL-2 re-stimulation): commensurate"
"CO[C@H]1C[C@@H]2CC[C@@H](C)[C@@](O)(O2)C(=O)C(=O)N2CCCC[C@H]2C(=O)O[C@H]([C@H](C)C[C@@H]2CC[C@@H](OC(=O)C(C)(C)Cc3ccccn3)[C@H](OC)C2)CC(=O)[C@H](C)/C=C(\C)[C@@H](O)[C@@H](OC)C(=O)[C@H](C)C[C@H](C)C2C=CC(/C=C/1C)ON2c1ccccc1 [Example 6, 9,27-dihydroxy-3-{-2-[4-hydroxy-3-methoxycyclohexyl]-1-methylethyl}-10,21-dimethoxy-6,8,12,14,20,26-hexamethyl-37-phenyl-4,9,10,12,13,14,15,18,21,22,23,24,25,26,27,32,33,34,34a-nonadecahydro-3H-23,27-epoxy-18,15-(epoxyimino)pyrido[2,1-c][1,4]oxazacyclohentriacontine-1,5,11,28,29(6H,31H)-pentone ester with-2,2-dimethyl-3-(pyridin-2-yl)-propionic acid]",> 6.00,,> 6.00,
CO[C@H]1C[C@@H]2CC[C@@H](C)[C@@](O)(O2)C(=O)C(=O)N2CCCC[C@H]2C(=O)O[C@H]([C@H](C)C[C@@H]2CC[C@@H](O)[C@H](OC)C2)CC(=O)[C@H](C)/C=C(\C)[C@@H](O)[C@@H](OC)C(=O)[C@H](C)C[C@H](C)/C=C/C=C/C=C/1C [rapamycin],< 6.00,< 6.00,,
Rapamycin phenyltriazolinedione,,,,pEC50 [1]: > 6.00
